Data taken from patent publication US5217975A (priority 1989, dated 1993).
Read-outs that look alike come from different tables or passages of the source.

Legend:
[1] = biological target: muscarinic receptors; type: binding, Hooded Lister rats; settings: displacement of 0.27 nM 3H-QNB, rat cerebral cortex, 37° C., 30 min
[2] = biological target: muscarinic receptors; assay: Radioligand binding: displacement of muscarinic agonist 3H-Oxotremorine-M (3H-OXO-M), rat cerebral cortex; design: species or system Hooded Lister rats; settings: displacement of 2 nM 3H-OXO-M, 2 mM magnesium chloride, 37° C., 30 min

| Compound | IC50 [1] | IC50 [2] |
| --- | --- | --- |
| Cn1ncc(C23CCCN(CC2)C3)n1 (racemic) [Example E1, (±) 5-(2-Methyl-1,2,3-triazol-4-yl)-1-azabicyclo-[3.2.1]octane] | 3 µM | 0.0142 µM |
| Cn1nnc(C2CN3CCC2CC3)n1 (racemic) [Example E2, (±) 3-(2-Methyltetrazol-5-yl)-1-azabicyclo[2.2.2]octane] | 5.7 µM | 0.23 µM |
| Cn1nnc(C23CCCN(CC2)C3)n1 (racemic) [Example E3, (±) 5-(2-Methyltetrazol-5-yl)-1-azabicyclo[3.2.1]octane] | 8.2 µM | 0.1 µM |
| CCn1nnc(C2CN3CCC2CC3)n1 (racemic) [Example E9, (±) 3-(2-Ethyltetrazol-5-yl)-1-azabicyclo[2.2.2]octane] | 8.3 µM | 1 µM |
| Cn1ncc(C2CN3CCC2CC3)n1 (racemic) [Example E11] | 6.55 µM | 0.056 µM |
| Cn1nncc1C1CN2CCC1CC2 (racemic) [Example E13] | 38 µM | 0.75 µM |
| Cn1nnc([C@@H]2CN3CC[C@@H]2C3)n1 (relative stereo) [Example E4, (±) exo-3-(2-Methyltetrazol-5-yl)-1-azabicyclo-[2.2.1]heptane] | 3.7 µM | 0.0115 µM |
| Cn1nnnc1[C@@H]1CN2CC[C@@H]1C2 (relative stereo) [Example E5, (±) exo-3-(1-Methyltetrazol-5-yl)-1-azabicyclo-[2.2.1]heptane] | 95 µM | 0.349 µM |
| Cn1nnc([C@H]2CN3CC[C@@H]2C3)n1 (relative stereo) [Example E6, (±) endo-3-(2-Methyltetrazol-5-yl)-1-azabicyclo-[2.2.1]heptane] | 40 µM | 0.324 µM |
| Cn1ncc([C@@H]2CN3CC[C@@H]2C3)n1 (relative stereo) [Example E14, (±) exo-3-(2-Methyl-1,2,3-triazol-4-y1)-1-azabicyclo 2.2.1]heptane] | 5.7 µM | 0.0056 µM |
| Cn1ncc([C@H]2CN3CC[C@@H]2C3)n1 (relative stereo) [Example E15, (±) endo-3-(2-Methyl-1,2,3-triazol-4-yl)-1-azabicyclo [2.2.1]heptane] | 18.5 µM | 0.0105 µM |
| CCn1nnc([C@@H]2CN3CC[C@@H]2C3)n1 (relative stereo) [Example E18, (±) exo-3-(2-Ethyltetrazol-5-yl)-1-azabicyclo[2.2.1]heptane] | 5.5 µM | 0.4 µM |
| CCn1ncc([C@@H]2CN3CC[C@@H]2C3)n1 (relative stereo) [Example E19, (±) exo-3-(2-Ethyl-1.2.3-triazol-4-yl)-1-azabicyclo [2.2.1]heptane] | 2.2 µM | 0.54 µM |
| Cn1nnc(C23CCN(CC2)C3)n1 [Example E8, 4-(2-Methyltetrazol-5-yl)-1-azabicyclo2.2.11 heptane] | 56 µM | 0.25 µM |
| Cn1ncc(C23CCN(CC2)C3)n1 [Example E10, 4-(2-Methyl-1,2,3-triazol-4-yl)-1-azabicyclo[2.2.1]-heptane] | 20 µM | 0.032 µM |
| CCn1ncc(C23CCN(CC2)C3)n1 [Example E16] | 15.8 µM | 0.44 µM |
